Test results as given in patent US7008941B2, “Reverse-turn mimetics and methods relating thereto” (Myriad Genetics, Inc., priority 2001, dated 2006).

Key:
neurokinin-1 receptor = neurokinin-1 receptor (Homo sapiens, UniProt P25103); assay: Tachykinin antagonism assay: inhibition of Substance P-induced calcium mobilization (FLIPR) in U373 MG cells; assay type: cell-based; details: Substance P 1 nM
Method: An assay measuring the ability of compounds 1–50 to antagonize binding of substance P peptide to its receptor neurokinin-1 was performed. Substance P is known to act upon cells via the mobilization of calcium (Bordey et al., Glia 11: 277–283, 1994). The compounds were assessed for their ability to inhibit the action of Substance P with the use of a Fluorescent Imaging Plate Reader (FLIPR) from Molecular Devices (Shroeder et al., J. Biomol. Screening 1: 75–80, 1996; U.S. Pat. No. 5,112,134; U.S. Pat. No. 4,968,148). […] This dye is similar to Fluo-3, Fluo-4, and Calcium Green dyes used by other researchers (Lin et al., Biotechniques 26: 318–326, 1999) in that it increases in fluorescence in the presence of calcium; the Molecular Devices version is preferable because the cells need not be washed following staining with the dye. […] Substance P was added in Hank's salt solution with 1% BSA to give a final concentration of 1 nM and the resultant change in fluorescence intensity was monitored for thirty seconds with an excitation wavelength of 480 nm and an emission of 515 nm. Some wells were maintained as controls which were not incubated with any compound, and the peak fluorescence readings resulting from the wells which received compounds were compared to these control wells in order to determine the degree of inhibition.

α4β1 integrin = target: T1, α4β1 integrin (Homo sapiens, UniProt P05556+P13612); assay: Antagonism of binding of CS1 peptide to α4β1 integrin (calcein-labelled Ramos cell adhesion to biotinylated CS1 plate); assay type: cell-based; details: Ramos cells
T1 construct: Harvested Ramos cells; endogenous in cells; host or cells: Ramos cells
T1 sequence (P13612 34-1032): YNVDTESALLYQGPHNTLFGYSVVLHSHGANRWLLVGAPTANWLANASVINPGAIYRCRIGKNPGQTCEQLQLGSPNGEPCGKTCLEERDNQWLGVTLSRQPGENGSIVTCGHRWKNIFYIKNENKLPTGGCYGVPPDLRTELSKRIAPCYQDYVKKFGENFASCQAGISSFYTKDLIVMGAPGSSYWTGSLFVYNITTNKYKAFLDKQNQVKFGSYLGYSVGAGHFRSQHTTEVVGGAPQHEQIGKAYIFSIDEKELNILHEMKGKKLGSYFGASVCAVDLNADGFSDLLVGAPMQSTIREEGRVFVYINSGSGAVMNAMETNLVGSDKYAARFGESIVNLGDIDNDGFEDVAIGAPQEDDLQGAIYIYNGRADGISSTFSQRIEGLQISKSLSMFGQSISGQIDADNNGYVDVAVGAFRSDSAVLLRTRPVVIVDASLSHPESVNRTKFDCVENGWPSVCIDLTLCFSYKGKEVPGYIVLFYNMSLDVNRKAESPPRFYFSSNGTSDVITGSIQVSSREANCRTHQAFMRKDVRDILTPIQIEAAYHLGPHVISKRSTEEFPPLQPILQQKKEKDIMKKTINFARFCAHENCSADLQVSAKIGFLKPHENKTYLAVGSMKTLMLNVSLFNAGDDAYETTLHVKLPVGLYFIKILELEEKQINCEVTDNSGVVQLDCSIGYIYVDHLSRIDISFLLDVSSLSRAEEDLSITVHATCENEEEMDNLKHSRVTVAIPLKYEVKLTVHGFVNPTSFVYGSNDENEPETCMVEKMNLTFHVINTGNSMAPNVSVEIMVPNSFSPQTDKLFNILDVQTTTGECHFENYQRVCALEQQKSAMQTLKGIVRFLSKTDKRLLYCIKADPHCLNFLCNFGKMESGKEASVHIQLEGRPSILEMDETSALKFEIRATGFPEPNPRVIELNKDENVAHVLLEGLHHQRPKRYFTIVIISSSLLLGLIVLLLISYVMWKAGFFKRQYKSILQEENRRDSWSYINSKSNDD
T1 sequence (P05556 21-798): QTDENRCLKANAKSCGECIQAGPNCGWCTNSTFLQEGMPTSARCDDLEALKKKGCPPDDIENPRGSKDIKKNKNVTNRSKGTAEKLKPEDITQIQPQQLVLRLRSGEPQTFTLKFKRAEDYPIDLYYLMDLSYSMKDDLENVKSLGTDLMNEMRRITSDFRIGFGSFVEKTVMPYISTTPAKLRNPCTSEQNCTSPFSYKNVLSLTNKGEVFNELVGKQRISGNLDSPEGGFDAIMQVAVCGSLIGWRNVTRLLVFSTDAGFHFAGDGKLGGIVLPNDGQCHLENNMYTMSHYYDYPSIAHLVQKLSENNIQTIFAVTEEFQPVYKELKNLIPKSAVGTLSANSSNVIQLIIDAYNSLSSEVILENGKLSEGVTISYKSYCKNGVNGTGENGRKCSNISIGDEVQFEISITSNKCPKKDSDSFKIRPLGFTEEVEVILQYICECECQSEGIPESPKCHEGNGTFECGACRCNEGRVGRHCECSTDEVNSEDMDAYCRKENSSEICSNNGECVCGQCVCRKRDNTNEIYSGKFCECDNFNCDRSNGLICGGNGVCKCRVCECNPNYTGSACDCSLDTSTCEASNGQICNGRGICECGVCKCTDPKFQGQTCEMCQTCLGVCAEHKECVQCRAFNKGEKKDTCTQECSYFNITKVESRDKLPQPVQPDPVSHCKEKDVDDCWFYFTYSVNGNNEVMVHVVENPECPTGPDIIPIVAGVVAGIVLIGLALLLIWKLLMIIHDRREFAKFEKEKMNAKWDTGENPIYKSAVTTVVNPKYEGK
Method: In brief, 100 μL/well of a solution of biotinylated CS1 peptide (1 mg/100 mL of phosphate buffered saline (PBS)) was incubated in a NeutrAvidin plate (Pierce) for 1 h at room temperature. The plate was then washed 3× with distilled water and treated with 200 μL of blocking buffer (3% BSA in PBS) for at least 4 h. Blocked plates were washed as above. Harvested Ramos cells (10^7/mL) were resuspended in PBS containing 10 μL of calcein AM/mL and incubated 30 min in the dark. This suspension was diluted with 45 mL PBS and the cells harvested by centrifugation and aspiration. The cells were resuspended in binding buffer (˜5×10^5/mL). If cell lysis was to be monitored ethidium homodimer was added to the buffer to a final concentration of 5 μM. A solution (10 μL) of compound to be tested or control peptide was added to appropriate wells followed by 90 μL of the cell suspension. The plate was incubated at 37° C. for 1 h. […] Otherwise, the plate was washed 3×, 50 μL of lysis buffer was added to each well, the plate rocked in the dark for 10 min, and the fluorescence monitored at 485 nm excitation and 535 nm emission.

Chain of neurokinin-1 receptor (P25103 whole entry): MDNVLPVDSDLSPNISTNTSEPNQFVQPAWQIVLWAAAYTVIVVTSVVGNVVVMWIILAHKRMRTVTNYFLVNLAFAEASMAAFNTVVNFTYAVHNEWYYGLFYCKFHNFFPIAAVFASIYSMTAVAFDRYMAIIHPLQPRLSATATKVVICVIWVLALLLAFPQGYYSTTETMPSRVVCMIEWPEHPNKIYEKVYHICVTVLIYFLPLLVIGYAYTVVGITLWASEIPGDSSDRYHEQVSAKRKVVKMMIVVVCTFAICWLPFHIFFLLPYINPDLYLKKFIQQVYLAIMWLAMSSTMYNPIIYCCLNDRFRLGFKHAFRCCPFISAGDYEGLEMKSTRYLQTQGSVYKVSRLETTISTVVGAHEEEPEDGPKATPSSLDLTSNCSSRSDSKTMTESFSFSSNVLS

SMILES | inhibition at 20 µM (neurokinin-1 receptor) [%] | inhibition at 100 µM (α4β1 integrin) [%]
CC12OC(=O)[C@H](Cc3ccccc3)N1C(=O)[C@H]1CCCN1C2=O (stereo partly drawn) [Compound 45] | > 25 | > 50
O=C1C[C@H](Cc2ccccc2)N2C(=O)[C@H](Cc3ccc(O)cc3)N(CC3CCCCC3)C(=O)C2O1 (stereo partly drawn) [Compound 47] | – | > 50
